# Key:
# Assay in all cases: MIC, NCCLS broth microdilution
# Assay type in all cases: cell-based
# S. aureus ATCC27660 MSSA = details: Staphylococcus aureus
# In short: (§1)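 To stop ramoplanin adsorbing to plastic, test media contained 0.02% BSA. MICs were then determined by NCCLS broth microdilution in two media, cation-adjusted Mueller-Hinton broth and trypticase soy broth.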
# E. faecium A6343 Line-R = details: Enterococcus faecium, A6343LINER
# In short: as §1
# E. faecium A2735 Syn-R = details: Enterococcus faecium, A2735SYNR
# In short: as §1
# E. faecium A4192 Syn-R = details: Enterococcus faecium, A4192SYNR
# In short: as §1
# E. faecalis A7789 Line-R = details: Enterococcus faecalis, A7789LINER
# In short: as §1
# S. epidermidis ATCC12228 = details: Staphylococcus epidermidis, ATCC12228, S. epidermidis ATCC12228
# In short: as §1
# S. epidermidis ATCC14990 = details: Staphylococcus epidermidis, ATCC14990, S. epidermidis ATCC14990
# In short: as §1
# E. faecalis ATCC51299 = details: Enterococcus faecalis, ATCC51299, E. faecalis ATCC51299
# In short: as §1
# E. faecalis ATCC29212 = details: Enterococcus faecalis, ATCC29212, E. faecalis ATCC29212
# In short: as §1
# S. aureus ATCC27659 MSSA = details: Staphylococcus aureus
# In short: as §1
# E. faecium UA392 = details: Enterococcus faecium, UA392, E. faecium UA392
# In short: as §1
# E. faecium ATCC700221 = details: Enterococcus faecium, ATCC700221, E. faecium ATCC700221
# In short: as §1
# E. faecium 1836 = details: Enterococcus faecium, 1836, E. faecium 1836
# In short: as §1
# E. faecium A6349 Line-R = details: Enterococcus faecium, A6349LINER
# In short: as §1
# [1] = system: S. aureus ATCC700699 MRSA/VISA
# In short: as §1
# E. faecium A-5960 Line-R = details: Enterococcus faecium, A5960LINER
# In short: as §1
# S. aureus ATCC12600 MRSA = details: Staphylococcus aureus
# In short: as §1
# E. faecium A6345 Line-R = details: for MIC: Enterococcus faecium, A6345LINER, E. faecium A6345 Line-R
# In short: as §1
# E. gallinarum UA604 = details: Enterococcus gallinarum, GALLINARUM
# In short: as §1
# S. aureus ATCC43300 MRSA = system: S. aureus ATCC43300 MRSA
# In short: as §1
# S. aureus ATCC19636 MSSA = details: Staphylococcus aureus
# In short: as §1
# E. faecium A5959 Line-R = details: Enterococcus faecium, A5959LINER
# In short: as §1
# E. faecium A6350 Line-R = details: Enterococcus faecium, A6350LINER
# In short: as §1
structure (smiles),measurement,setting,value
CN[C@H](CC(C)C)C(=O)N[C@H]1C(=O)N[C@@H](CC(N)=O)C(=O)N[C@H]2C(=O)N[C@H]3C(=O)N[C@H](C(=O)N[C@H](C(=O)O)c4cc(O)cc(O)c4-c4cc3ccc4O)[C@H](O)c3ccc(c(Cl)c3)Oc3cc2cc(c3O[C@@H]2O[C@H](CO)[C@@H](O)[C@H](O)[C@H]2O[C@H]2C[C@](C)(N)[C@H](O)[C@H](C)O2)Oc2ccc(cc2Cl)[C@H]1O [Vancomycin],MIC,S. aureus ATCC27660 MSSA; CAMHB,2 µg/mL
same,MIC,S. aureus ATCC27660 MSSA; TSB,2 µg/mL
same,MIC,"S. aureus ATCC27660 MSSA; Table 6, 1st",1 µg/mL
same,MIC,"S. aureus ATCC27660 MSSA; Table 6, 2nd",1 µg/mL
same,MIC,E. faecium A6343 Line-R; CAMHB,2 µg/mL
same,MIC,E. faecium A6343 Line-R; TSB,2 µg/mL
same,MIC,"E. faecium A6343 Line-R; Table 6, 1st",1 µg/mL
same,MIC,"E. faecium A6343 Line-R; Table 6, 2nd",1 µg/mL
same,MIC,E. faecium A2735 Syn-R; CAMHB,> 16 µg/mL
same,MIC,E. faecium A2735 Syn-R; TSB,> 16 µg/mL
same,MIC,"E. faecium A2735 Syn-R; Table 6, 1st",> 16 µg/mL
same,MIC,"E. faecium A2735 Syn-R; Table 6, 2nd",> 64 µg/mL
same,MIC,E. faecium A4192 Syn-R; CAMHB,> 16 µg/mL
same,MIC,E. faecium A4192 Syn-R; TSB,> 16 µg/mL
same,MIC,"E. faecium A4192 Syn-R; Table 6, 1st",> 16 µg/mL
same,MIC,"E. faecium A4192 Syn-R; Table 6, 2nd",> 64 µg/mL
same,MIC,E. faecalis A7789 Line-R; CAMHB,2 µg/mL
same,MIC,E. faecalis A7789 Line-R; TSB,2 µg/mL
same,MIC,"E. faecalis A7789 Line-R; Table 6, 1st",1 µg/mL
same,MIC,"E. faecalis A7789 Line-R; Table 6, 2nd",1 µg/mL
same,MIC,S. epidermidis ATCC12228; CAMHB,4 µg/mL
same,MIC,S. epidermidis ATCC12228; TSB,4 µg/mL
same,MIC,"S. epidermidis ATCC12228; Table 6, 1st",2 µg/mL
same,MIC,"S. epidermidis ATCC12228; Table 6, 2nd",2 µg/mL
same,MIC,S. epidermidis ATCC14990; CAMHB,4 µg/mL
same,MIC,S. epidermidis ATCC14990; TSB,4 µg/mL
same,MIC,"S. epidermidis ATCC14990; Table 6, 1st",2 µg/mL
same,MIC,"S. epidermidis ATCC14990; Table 6, 2nd",2 µg/mL
same,MIC,E. faecalis ATCC51299; CAMHB,> 16 µg/mL
same,MIC,E. faecalis ATCC51299; TSB,> 16 µg/mL
same,MIC,"E. faecalis ATCC51299; Table 6, 1st",> 16 µg/mL
same,MIC,"E. faecalis ATCC51299; Table 6, 2nd",32 µg/mL
same,MIC,E. faecalis ATCC29212; CAMHB,4 µg/mL
same,MIC,"E. faecalis ATCC29212; Table 6, 1st",2 µg/mL
same,MIC,"E. faecalis ATCC29212; Table 6, 2nd",2 µg/mL
same,MIC,S. aureus ATCC27659 MSSA; CAMHB,1 µg/mL
same,MIC,S. aureus ATCC27659 MSSA; TSB,> 16 µg/mL
same,MIC,"S. aureus ATCC27659 MSSA; Table 6, 1st",1 µg/mL
same,MIC,"S. aureus ATCC27659 MSSA; Table 6, 2nd",1 µg/mL
same,MIC,E. faecium UA392; CAMHB,1 µg/mL
same,MIC,E. faecium UA392; TSB,2 µg/mL
same,MIC,"E. faecium UA392; Table 6, 1st",2 µg/mL
same,MIC,"E. faecium UA392; Table 6, 2nd",2 µg/mL
same,MIC,E. faecium ATCC700221; CAMHB,> 16 µg/mL
same,MIC,E. faecium ATCC700221; TSB,> 16 µg/mL
same,MIC,"E. faecium ATCC700221; Table 6, 1st",> 16 µg/mL
same,MIC,"E. faecium ATCC700221; Table 6, 2nd",> 64 µg/mL
same,MIC,E. faecium 1836; CAMHB,> 16 µg/mL
same,MIC,E. faecium 1836; TSB,> 16 µg/mL
same,MIC,"E. faecium 1836; Table 6, 1st",> 16 µg/mL
same,MIC,"E. faecium 1836; Table 6, 2nd",> 64 µg/mL
same,MIC,"E. faecium A6349 Line-R; Table 6, 1st",> 16 µg/mL
same,MIC,"E. faecium A6349 Line-R; Table 6, 2nd",> 64 µg/mL
same,MIC,"[1]; S. aureus ATCC700699 MRSA/VISA, TSB","2, 2 μg/ml"
same,MIC,"[1]; S. aureus ATCC700699 MRSA/VISA, Table 6, 1st",2 µg/mL
same,MIC,"[1]; S. aureus ATCC700699 MRSA/VISA, Table 6, 2nd",2 µg/mL
same,MIC,[1]; Staphylococcus aureus,2 µg/mL
same,MIC,E. faecium A-5960 Line-R; CAMHB,> 16 µg/mL
same,MIC,E. faecium A-5960 Line-R; TSB,> 16 µg/mL
same,MIC,"E. faecium A-5960 Line-R; Table 6, 1st",> 16 µg/mL
same,MIC,"E. faecium A-5960 Line-R; Table 6, 2nd",> 64 µg/mL
same,MIC,S. aureus ATCC12600 MRSA; CAMHB,2 µg/mL
same,MIC,S. aureus ATCC12600 MRSA; TSB,2 µg/mL
same,MIC,"S. aureus ATCC12600 MRSA; Table 6, 1st",1 µg/mL
same,MIC,"S. aureus ATCC12600 MRSA; Table 6, 2nd",1 µg/mL
same,reference MIC for strains used for killing curve,"E. faecium A6345 Line-R; E. faecium A6345 Line-R. as printed, second row of Table 3",>64 µg/mL
same,reference MIC for strains used for killing curve,"E. faecium A6345 Line-R; E. faecium A6345 Line-R., first row of Table 3",>64 µg/mL
same,MIC,E. faecium A6345 Line-R; CAMHB,> 16 µg/mL
same,MIC,E. faecium A6345 Line-R; TSB,> 16 µg/mL
same,MIC,"E. faecium A6345 Line-R; Table 6, 1st",> 16 µg/mL
same,MIC,"E. faecium A6345 Line-R; Table 6, 2nd",> 64 µg/mL
same,MIC,E. gallinarum UA604; CAMHB,1 µg/mL
same,MIC,E. gallinarum UA604; TSB,2 µg/mL
same,MIC,"E. gallinarum UA604; Table 6, 1st",0.5 µg/mL
same,MIC,"E. gallinarum UA604; Table 6, 2nd",0.5 µg/mL
same,MIC,"S. aureus ATCC43300 MRSA; S. aureus ATCC43300 MRSA/VISA, Table 6, 2nd",1 µg/mL
same,MIC,"S. aureus ATCC43300 MRSA; S. aureus ATCC43300 MRSA, TSB","2, 2 μg/ml"
same,MIC,S. aureus ATCC43300 MRSA; Staphylococcus aureus,2 µg/mL
same,MIC,"S. aureus ATCC43300 MRSA; Staphylococcus aureus, ATCC 43300 / MRSA / VISA",1 µg/mL
same,MIC,S. aureus ATCC19636 MSSA; CAMHB,2 µg/mL
same,MIC,S. aureus ATCC19636 MSSA; TSB,> 16 µg/mL
same,MIC,"S. aureus ATCC19636 MSSA; Table 6, 1st",1 µg/mL
same,MIC,"S. aureus ATCC19636 MSSA; Table 6, 2nd",1 µg/mL
same,MIC,E. faecium A5959 Line-R; CAMHB,> 16 µg/mL
same,MIC,E. faecium A5959 Line-R; TSB,> 16 µg/mL
same,MIC,"E. faecium A5959 Line-R; Table 6, 1st",> 16 µg/mL
same,MIC,"E. faecium A5959 Line-R; Table 6, 2nd",> 64 µg/mL
same,MIC,E. faecium A6350 Line-R; CAMHB,2 µg/mL
same,MIC,E. faecium A6350 Line-R; TSB,2 µg/mL
same,MIC,"E. faecium A6350 Line-R; Table 6, 1st",1 µg/mL
same,MIC,"E. faecium A6350 Line-R; Table 6, 2nd",1 µg/mL
